SMILES strings stand for the structures. Where “and” joins values, the source holds several entries; their conditions need not be identical. Equal entries are not always repeated.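 Step 1: Grow cells in 96-well plates. Step 2: Expose to compound for 48 hours at 5 concentrations. Step 3: Interpolate endpoints linearly; if unreached, use highest concentration. GI50: concentration for 50% inhibition of growth. The concentration for full growth arrest is given as TGI.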

Some test systems named below: A498 renal; ACHN renal; CCRF-CEM leukemia; HL-60(TB) leukemia; MCF7 breast; NCI-H522 lung; OVCAR-5 ovarian; RPMI-8226 leukemia; SK-MEL-5 melanoma; SNB-75 CNS.
Common to all, as to assay: NCI-60 cell line screen, 48 h

`O=C1/C(=C/c2ccc(Cl)cc2)CCC1CN1CCOCC1` (stereo not given): the TGI in the assay with A498 renal was found to be 36 µM; in the assay with ACHN renal, 24.8 µM; in the assay on CCRF-CEM leukemia, 6.84 µM; with HL-60(TB) leukemia, 3.8 µM; with MCF7 breast, 21 µM; in the assay on NCI-H522 lung, 5.15 µM. Besides, the TGI was 45.7 µM in the assay with OVCAR-5 ovarian, greater than 28.3 µM in the assay on RPMI-8226 leukemia, 26.1 µM with SK-MEL-5 melanoma and 37.9 µM in the assay with SNB-75 CNS.
As to `CC(C)=CC(=O)N[C@@H]1CC2CCC3C(CC[C@@]4(C)C3CC[C@@H]4C(C)N(C)C)[C@@]2(C)C[C@@H]1O` (stereo not given in full), the GI50 in the assay on A498 renal was 5.19 µM; in the assay with ACHN renal it was 6.36 µM; with CCRF-CEM leukemia, 4.85 µM; in the assay on HL-60(TB) leukemia, 1.61 µM; with MCF7 breast it was 2.95 µM; with NCI-H522 lung it was 7.47 µM. The GI50 was 10.6 µM with OVCAR-5 ovarian, 2.51 µM with RPMI-8226 leukemia, 1.57 µM with SK-MEL-5 melanoma and 5.97 µM in the assay on SNB-75 CNS. Moreover, the TGI with A498 renal was found to be 28.8 µM; in the assay on ACHN renal, 32.6 µM; in the assay on CCRF-CEM leukemia, 28.9 µM; with HL-60(TB) leukemia it was 6.14 µM; in the assay on MCF7 breast, 21.1 µM; in the assay on NCI-H522 lung, 31.3 µM. The TGI with OVCAR-5 ovarian was 38.2 µM; in the assay on RPMI-8226 leukemia, 18.5 µM; with SK-MEL-5 melanoma it was 4.17 µM; in the assay with SNB-75 CNS, 23.3 µM.
As for `CCCCCCCCCCCC1=NC(C)(C)CN1CC(C)O` (stereo not given), the GI50 was 10 µM with A498 renal; 10 µM with ACHN renal; 2.85 µM in the assay on CCRF-CEM leukemia; 2.44 µM with HL-60(TB) leukemia; 2.05 µM with MCF7 breast; 3.42 µM in the assay with NCI-H522 lung. For the same molecule, the GI50 is 12.3 µM with OVCAR-5 ovarian, 1.58 µM in the assay with RPMI-8226 leukemia, 5.65 µM in the assay on SK-MEL-5 melanoma and 9.26 µM in the assay with SNB-75 CNS. The TGI stood at 22.8 µM with A498 renal; 21.6 µM in the assay with ACHN renal; 11.9 µM in the assay with CCRF-CEM leukemia; 5.68 µM with HL-60(TB) leukemia; 4.77 µM in the assay with MCF7 breast; 15.9 µM with NCI-H522 lung. The TGI in the assay on OVCAR-5 ovarian is 24.8 µM; in the assay with RPMI-8226 leukemia it was 4.18 µM; in the assay on SK-MEL-5 melanoma it was 18.1 µM; with SNB-75 CNS it was 21.3 µM.
Regarding `COc1ccc(C2=N[C@@H](c3ccc(Cl)cc3)[C@@H](c3ccc(Cl)cc3)N2C(=O)N2CCNC(=O)C2)c(OC(C)C)c1`, the GI50 with A498 renal was 12.6 µM and 6.1 µM and 9.23 µM; in the assay on ACHN renal it was 14.6 µM and 3.61 µM and 3.8 µM; with CCRF-CEM leukemia it was 14.7 µM and 16.8 µM and 18.4 µM; with HL-60(TB) leukemia, 15.1 µM and 18.1 µM and 18.5 µM; with MCF7 breast it was 13 µM and 2.43 µM and 2.27 µM; with NCI-H522 lung it was 14.6 µM and 13.6 µM and 16.3 µM. The GI50 in the assay on OVCAR-5 ovarian was 17.1 µM and 16.3 µM and 17.3 µM; in the assay with RPMI-8226 leukemia it was 14.6 µM and 16.6 µM and 16.4 µM; in the assay on SK-MEL-5 melanoma, 14.1 µM and 5.35 µM and 6.56 µM; in the assay with SNB-75 CNS it was 13.4 µM and 11.8 µM and 11.9 µM. Besides, the TGI in the assay on A498 renal is 25.6 µM and 21.9 µM and 24.1 µM; in the assay on ACHN renal, 29.4 µM and 15.1 µM and 16.1 µM; in the assay on CCRF-CEM leukemia it was 35.4 µM and 42.7 µM and 50 µM; in the assay on HL-60(TB) leukemia it was 35.8 µM and 42.3 µM and 51 µM; with MCF7 breast it was 28.2 µM and 12.9 µM and 13 µM; in the assay on NCI-H522 lung, 28.5 µM and 27.3 µM and 31.1 µM. The TGI with OVCAR-5 ovarian was 34 µM and 32.2 µM and 34.1 µM; with RPMI-8226 leukemia it was > 63.7 µM and 62.7 µM and 56.8 µM; in the assay on SK-MEL-5 melanoma, 27.2 µM and 17.7 µM and 19.6 µM; with SNB-75 CNS, 26.5 µM and 25.1 µM and 26.2 µM.

The values above are taken from PubChem BioAssay (NCI).
